Experimental data as given in patent publication US9670214B2, “Small molecule myristate inhibitors of Bcr-abl and methods of use” (DANA-FARBER CANCER INSTITUTE, INC., priority 2007, dated 2017).

Target: Bcr-abl T315I (Ba/F3.p210^T315I cells) (Homo sapiens, UniProt P00519, T315I, cells depend on it)
Assay: Proliferation assay (MTT), T315I mutant Bcr-abl expressing Ba/F3 cells
Type: cell-based, murine
Conditions: 48 h, drug concentrations 0.005-10 μM
Text: Wild type Bcr-abl expressing 32D (32D.p210) and Ba/F3 (Ba/F3.p210) cells, and mutant Bcr-abl expressing cell lines Ba/F3.p210^G250E, Ba/F3.p210^E255V, Ba/F3.p210^T315I, Ba/F3.p210^F317L and Ba/F3.p210^M351T, as well as Ba/F3 cells transformed with Flt-3-ITD kinase. Additional assays included Ba/F3 cells expressing the fusion protein kinases TEL-PDGFRβ, TEL-JAK1, NPM-ALK, TEL-cKit, Tel-Bmx, Tel-FGR3, Tel-Lck and Ba/F3.TPR-met cells. All the above cell lines were maintained in RPMI-1640 medium with L-Glutamine, 10% FBS and 1 mg/ml geneticin (Gibco).
(§1) Cells (0.3-0.6×10^6/ml) were plated in duplicate or triplicate in 96-well plates containing increasing drug concentrations (0.005-10 μM). After incubation at 37° C. in 5% CO2 for 48 h, the effect of the compounds on cell viability was determined by MTT (Promega) colorimetric dye reduction method. Inhibition of cell proliferation was calculated as a percentage of growth of DMSO treated cells, and IC50 values were determined with Microsoft Excel XLfit3.

IC50 | Compound
> 10 µM | CCNC(=O)c1cc2c(Nc3ccc(OC(F)(F)F)cc3)ncnc2s1
> 10 µM | CN(C)C1CCN(Cc2cc3c(Nc4ccc(OC(F)(F)F)cc4)ncnc3s2)C1 (centres unmarked)
> 10 µM | O=C(NCCN1CCOCC1)c1cc2c(Nc3ccc(OC(F)(F)F)cc3)ncnc2s1 [drawing 332]

Test system: Ba/F3 cells (IL-3 dependent murine pro-B cell line)
Assay: Proliferation assay (MTT), parental Ba/F3 cells
Type: cell-based
Conditions: Mus musculus, 48 h, drug concentrations 0.005-10 μM, read-out: BaF3
Experimental: Interleukin-3 (IL-3) dependent murine pro-B cell line, Ba/F3, and murine myeloid precursor cell line, 32D, were maintained in RPMI-1640 medium supplemented with L-Glutamine, 10% FBS and 10 U/ml recombinant murine IL-3 (Roche). Mo7e human megakarioblastic cell line was grown in RPMI-1640 medium supplemented with L-Glutamine, 20% FBS and 5 ng/ml recombinant human granulocyte macrophage cell stimulating factor (GM-CSF) (R&D Systems) or 200 ng/ml stem cell factor (SCF) (Biosource).
as §1

Compound | IC50
FC(F)(F)Oc1ccc(Nc2ncnc3[nH]ncc23)cc1 | > 10 µM
CCn1ncc2c(Nc3ccc(OC(F)(F)F)cc3)ncnc21 | > 10 µM
CCn1cc2c(Nc3ccc(OC(F)(F)F)cc3)ncnc2n1 | > 10 µM
CCS(=O)(=O)n1ncc2c(Nc3ccc(OC(F)(F)F)cc3)ncnc21 | 7 µM
FC(F)(F)Oc1ccc(Nc2ncnc3c2cnn3C2CCCCC2)cc1 | 9.3 µM
FC(F)(F)Oc1ccc(Nc2ncnc3nn(C4CCCCC4)cc23)cc1 | > 10 µM
NC(=O)Cn1ncc2c(Nc3ccc(OC(F)(F)F)cc3)ncnc21 | > 10 µM
NC(=O)Cn1cc2c(Nc3ccc(OC(F)(F)F)cc3)ncnc2n1 | > 3.3 µM
NC(=O)CCn1ncc2c(Nc3ccc(OC(F)(F)F)cc3)ncnc21 | 8.7 µM
FC(F)(F)Oc1ccc(Nc2ncnc3c2cnn3CC2CCOC2)cc1 (centres unmarked) | > 10 µM
FC(F)(F)Oc1ccc(Nc2ncnc3nn(CC4CCOC4)cc23)cc1 (centres unmarked) | > 10 µM
CN(C)CC(C#N)n1ncc2c(Nc3ccc(OC(F)(F)F)cc3)ncnc21 (centres unmarked) | > 10 µM
CCCCn1ncc2c(Nc3ccc(OC(F)(F)F)cc3)ncnc21 | 6.6 µM
CCCCn1cc2c(Nc3ccc(OC(F)(F)F)cc3)ncnc2n1 | > 10 µM
CC(C)(C)n1ncc2c(Nc3ccc(OC(F)(F)F)cc3)ncnc21 | 7.3 µM
FC(F)(F)Cn1ncc2c(Nc3ccc(OC(F)(F)F)cc3)ncnc21 | > 10 µM
FC(F)(F)Cn1cc2c(Nc3ccc(OC(F)(F)F)cc3)ncnc2n1 | 8 µM
FC(F)(F)Oc1ccc(Nc2ncnc3c2cnn3Cc2ccccc2)cc1 | > 10 µM
FC(F)(F)Oc1ccc(Nc2ncnc3nn(Cc4ccccc4)cc23)cc1 | > 10 µM
FC(F)(F)Oc1ccc(Nc2ncnc3c2cnn3CCc2ccccc2)cc1 | > 10 µM
FC(F)(F)Oc1ccc(Nc2ncnc3nn(CCc4ccccc4)cc23)cc1 | > 10 µM
Fc1cc(Cn2cc3c(Nc4ccc(OC(F)(F)F)cc4)ncnc3n2)ccc1C(F)(F)F | 4.6 µM

Compound | IC50
FC(F)(F)Oc1ccc(Nc2ncnc3nn(Cc4cccc(Br)c4)cc23)cc1 | > 10 µM
Oc1cccc(Cn2cc3c(Nc4ccc(OC(F)(F)F)cc4)ncnc3n2)c1 | 6.9 µM
FC(F)(F)Oc1ccc(Nc2ncnc3nn(Cc4cccnc4)cc23)cc1 | 2.1 µM
FC(F)(F)Oc1ccc(Nc2ncnc3c2cnn3Cc2ccccn2)cc1 | > 10 µM
FC(F)(F)Oc1ccc(Nc2ncnc3c2cnn3Cc2ccncc2)cc1 | > 10 µM
O=C1c2ccccc2C(=O)N1CCn1ncc2c(Nc3ccc(OC(F)(F)F)cc3)ncnc21 | > 10 µM
NCCn1ncc2c(Nc3ccc(OC(F)(F)F)cc3)ncnc21 | > 10 µM
FC(F)(F)Oc1ccc(Nc2ncnc3c2cnn3-c2cc(C(F)(F)F)ccn2)cc1 | > 10 µM
FC(F)(F)Oc1ccc(Nc2ncnc3nn(-c4cc(C(F)(F)F)ccn4)cc23)cc1 | > 10 µM
Cc1cccc(-n2ncc3c(Nc4ccc(OC(F)(F)F)cc4)ncnc32)c1C | > 10 µM
Cc1cccc(-n2cc3c(Nc4ccc(OC(F)(F)F)cc4)ncnc3n2)c1C | > 10 µM
Fc1ccccc1-n1ncc2c(Nc3ccc(OC(F)(F)F)cc3)ncnc21 | > 10 µM
Fc1ccccc1-n1cc2c(Nc3ccc(OC(F)(F)F)cc3)ncnc2n1 | > 10 µM
FC(F)(F)Oc1ccc(Nc2ncnc3c2cnn3-c2ccc(Cl)cc2Cl)cc1 | > 10 µM
FC(F)(F)Oc1ccc(Nc2ncnc3nn(-c4ccc(Cl)cc4Cl)cc23)cc1 | > 10 µM
CCc1ccccc1-n1ncc2c(Nc3ccc(OC(F)(F)F)cc3)ncnc21 | > 10 µM
CCc1ccccc1-n1cc2c(Nc3ccc(OC(F)(F)F)cc3)ncnc2n1 | > 10 µM
NS(=O)(=O)c1cccc(-n2ncc3c(Nc4ccc(OC(F)(F)F)cc4)ncnc32)c1 | 1.8 µM
Cn1cnc2ncnc(Nc3ccc(OC(F)(F)F)cc3)c21 | > 10 µM
OC[C@H]1OC(n2cnc3c(Nc4ccc(OC(F)(F)F)cc4)ncnc32)[C@H](O)[C@@H]1O (some centres unmarked) | > 10 µM
FC(F)(F)Oc1ccc(Nc2ncnc3c2ncn3CCN2CCOCC2)cc1 | > 10 µM
OC[C@H]1OC(n2ccc3c(Nc4ccc(OC(F)(F)F)cc4)ncnc32)[C@H](O)[C@@H]1O (some centres unmarked) | > 10 µM

Compound | IC50
OCCn1ccc2c(Nc3ccc(OC(F)(F)F)cc3)ncnc21 | > 10 µM
COc1ccc(Cn2ccc3c(Nc4ccc(OC(F)(F)F)cc4)ncnc32)cc1 | > 10 µM
COCCCNC(=O)CCn1ccc2c(Nc3ccc(OC(F)(F)F)cc3)ncnc21 | > 10 µM
Cn1c(C(=O)N2CCC(Br)CC2)cc2c(Nc3ccc(OC(F)(F)F)cc3)ncnc21 | > 10 µM
CCOC(=O)C1CCCN(C(=O)c2cc3c(Nc4ccc(OC(F)(F)F)cc4)ncnc3n2C)C1 (centres unmarked) | > 10 µM
Cn1c(C(=O)N2CCCC(CO)C2)cc2c(Nc3ccc(OC(F)(F)F)cc3)ncnc21 (centres unmarked) | 7.29 µM
Cn1c(C(=O)N2CCC3(CC2)C(=O)NCN3c2ccccc2)cc2c(Nc3ccc(OC(F)(F)F)cc3)ncnc21 | > 10 µM
COC[C@H]1CCCN1C(=O)c1cc2c(Nc3ccc(OC(F)(F)F)cc3)ncnc2n1C | > 10 µM
CCNC(=O)c1cc2c(Nc3ccc(OC(F)(F)F)cc3)ncnc2n1C | 5.37 µM
OCc1cc2c(Nc3ccc(OC(F)(F)F)cc3)ncnc2s1 | > 10 µM
CCNC(=O)c1cc2c(Nc3ccc(OC(F)(F)F)cc3)ncnc2s1 | > 10 µM
CN(C)C1CCN(Cc2cc3c(Nc4ccc(OC(F)(F)F)cc4)ncnc3s2)C1 (centres unmarked) | > 10 µM
O=C(c1cc2c(Nc3ccc(OC(F)(F)F)cc3)ncnc2s1)N1CCN(N2CCCC2)CC1 | 5.77 µM
COC1CCN(C(=O)c2cc3c(Nc4ccc(OC(F)(F)F)cc4)ncnc3s2)CC1 | > 10 µM
CCOC(=O)Cc1cnc(NC(=O)c2ccc3c(Nc4ccc(OC(F)(F)F)cc4)ncnc3c2)s1 | > 10 µM
CN(C)C1CCN(C(=O)c2ccc3c(Nc4ccc(OC(F)(F)F)cc4)ncnc3c2)C1 (centres unmarked) | > 10 µM
CN1CCCN(C(=O)c2ccc3c(Nc4ccc(OC(F)(F)F)cc4)ncnc3c2)CC1 | 6.98 µM
O=C(c1ccc2c(Nc3ccc(OC(F)(F)F)cc3)ncnc2c1)N1CCC(O)CC1 | > 10 µM
O=C(c1ccc2c(Nc3ccc(OC(F)(F)F)cc3)ncnc2c1)N1CCC(Br)CC1 | 7.42 µM
NC(=O)C1CCN(C(=O)c2ccc3c(Nc4ccc(OC(F)(F)F)cc4)ncnc3c2)CC1 | > 10 µM
O=C(c1ccc2c(Nc3ccc(OC(F)(F)F)cc3)ncnc2c1)N1CCCC(CO)C1 (centres unmarked) | > 10 µM
O=C1Cc2c(ncnc2Nc2ccc(OC(F)(F)F)cc2)N1 | > 10 µM

Compound | IC50
CN1C(=O)Cc2c(Nc3ccc(OC(F)(F)F)cc3)ncnc21 | > 10 µM
Cc1c(Nc2ccc(OC(F)(F)F)cc2)ncnc1-c1ccc(S(N)(=O)=O)cc1 | > 10 µM
CC(C)S(=O)(=O)c1ccc(-c2cc(Nc3ccc(OC(F)(F)F)cc3)ncn2)cc1 | > 10 µM
CCN(CC)S(=O)(=O)c1ccc(-c2ncnc(Nc3ccc(OC(F)(F)F)cc3)c2C)cc1 | > 10 µM
CCS(=O)(=O)Nc1ccc(-c2cc(Nc3ccc(OC(F)(F)F)cc3)ncn2)cc1 | 8.31 µM
CCCCS(=O)(=O)Nc1ccc(-c2cc(Nc3ccc(OC(F)(F)F)cc3)ncn2)cc1 | 8.92 µM
CC(C)S(=O)(=O)Nc1ccc(-c2cc(Nc3ccc(OC(F)(F)F)cc3)ncn2)cc1 | 6.93 µM
COCCCNC(=O)c1ccc(-c2ncnc(Nc3ccc(OC(F)(F)F)cc3)c2C)cc1 | 3.11 µM
FC(F)(F)Oc1ccc(Nc2cc(Nc3cc(C4CC4)[nH]n3)ncn2)cc1 | 5.62 µM
FC(F)(F)Oc1ccc(Nc2cc(Nc3nccn3-c3cccc(C(F)(F)F)c3)ncn2)cc1 | 2.56 µM
Cn1cc(-c2cc(Nc3ccc(OC(F)(F)F)cc3)ncn2)cn1 | > 10 µM
Cc1c(Nc2ccc(OC(F)(F)F)cc2)ncnc1-c1cnn(CC(C)C)c1 | 1.46 µM
FC(F)(F)Oc1ccc(Nc2cc(-c3cc(NCCN4CCOCC4)ncn3)ncn2)cc1 | > 10 µM
Cc1c(Nc2ccc(OC(F)(F)F)cc2)ncnc1-c1cnn(C)c1 | > 10 µM
Cc1c(Nc2ccc(OC(F)(F)F)cc2)ncnc1-c1cnn(Cc2ccccc2)c1 | 9.9 µM
FC(F)(F)Oc1ccc(Nc2cc(-c3cnn(Cc4cccnc4)c3)ncn2)cc1 | > 10 µM
O=Cc1cnc2c(ccn2CCN2CCOCC2)c1Nc1ccc(OC(F)(F)F)cc1Br | > 10 µM
O=[N+]([O-])c1cccc(-c2cn3cnc(Nc4ccc(OC(F)(F)F)cc4)cc3n2)c1 [2-(3-nitrophenyl)-N-(4-(trifluoromethoxy)phenyl)imidazo[1,2-c]pyrimidin-7-amine] | 9.6 µM
OCCn1ncc2c(Nc3ccc(OC(F)(F)F)cc3)ncnc21 [2-(4-(4-(trifluoromethoxy)phenylamino)-1H-pyrazolo[3,4-d]pyrimidin-1-yl)ethanol] | > 10 µM
OCCn1cc2c(Nc3ccc(OC(F)(F)F)cc3)ncnc2n1 [2-(4-(4-(trifluoromethoxy)phenylamino)-2H-pyrazolo[3,4-d]pyrimidin-2-yl)ethanol] | > 10 µM
